Assay: osmotic coefficient (dimensionless); mn = molality of the nth substance listed, in mol/kg
Details: 101 kPa, Liquid, Knauer K-7000 vapour pressure osmometer

CCOS(=O)(=O)[O-].CC[n+]1cccc(C)c1 [1-ethyl-3-methylpyridinium ethylsulfate] + O
osmotic coefficient
Details	313.15 K	333.15 K
m1 = 0.1419	0.956	0.948
m1 = 0.2108	0.927	0.925
m1 = 0.3168	0.897	0.887
m1 = 0.3829	0.873	0.864
m1 = 0.5036	0.846	0.836
m1 = 0.6837	0.828	0.811
m1 = 1.034	0.813	0.784
m1 = 1.326	0.808	0.782
m1 = 1.726	0.807	0.782
m1 = 2.11	0.813	0.792
m1 = 2.501	0.826	0.802
m1 = 2.892	0.843	0.809
m1 = 3.303	0.859	0.817

CCCCCCn1cc[n+](C)c1.[Cl-] [1-hexyl-3-methylimidazolium chloride] + CCO
osmotic coefficient
Details	313.15 K	333.15 K
m1 = 0.0583	0.955	0.742
m1 = 0.0975	0.92	0.714
m1 = 0.4274	0.735	0.608
m1 = 0.6999	0.695	0.584
m1 = 1.014	0.677	0.568
m1 = 1.354	0.662	0.561
m1 = 1.597	0.659	0.558
m1 = 1.924	0.652	0.551
m1 = 2.211	0.648	0.553
m1 = 2.579	0.636	0.544
m1 = 2.859	0.635	0.544
m1 = 3.272	0.628	0.535

CCn1cc[n+](C)c1.[Cl-] [1-ethyl-3-methylimidazolium chloride] + O
osmotic coefficient
Details	313.15 K	333.15 K
m1 = 0.1847	0.97	0.936
m1 = 0.3033	0.949	0.918
m1 = 0.3896	0.941	0.896
m1 = 0.5094	0.923	0.865
m1 = 0.7105	0.895	0.847
m1 = 1.047	0.861	0.812
m1 = 1.294	0.842	0.801
m1 = 1.678	0.835	0.79
m1 = 2.113	0.831	0.784
m1 = 2.49	0.829	0.788
m1 = 2.947	0.844	0.797
m1 = 3.237	0.852	0.809
m1 = 3.722	0.885	0.831
m1 = 4.113	0.921	0.855

CCCCn1cc[n+](C)c1.[Cl-] [1-butyl-3-methylimidazolium chloride] + CCO
osmotic coefficient
Details	313.15 K	333.15 K
m1 = 0.1278	1.02	0.782
m1 = 0.3749	0.887	0.709
m1 = 0.6198	0.802	0.666
m1 = 0.7747	0.783	0.647
m1 = 1.096	0.742	0.63
m1 = 1.437	0.717	0.613
m1 = 1.904	0.685	0.589
m1 = 2.318	0.68	0.576
m1 = 2.688	0.657	0.566
m1 = 3.018	0.653	0.553
m1 = 3.348	0.66	0.55
m1 = 3.521	0.66	0.548

From the NIST ThermoML archive (doi:10.1016/j.jct.2008.08.011)
